Source: patent US7560443B2, “Mixtures of fructose, sucrose and lactose as a low-calorie bulk sweetener with reduced glycemic index” (Vivalac, Inc. A Maryland Corp., priority 2002, dated 2009)
Read-outs that look alike come from different tables or passages of the source.

Tests used:
[1] = molecular target: human lactase (Homo sapiens, UniProt P09848); settings: in vitro; cited from earlier work
[2] = system: plasma glucose; assay: OTT, aqueous solutions (25 g in 100 g water), type 2 diabetic subject (DM2); assay type: in vivo, human
Method: (§1) Test articles were aqueous solutions (in 200 g water) of 50 g of total carbohydrates, which were prepared early in the morning before the test. All of the same protocol criteria were applied for the test, as described in Example 1 above, except that times for blood samples were 0, 30, 45, 60, 90, 120, and 180 minutes. The test subjects were Subject #1, described above, and Subject #2, a healthy person (BMI=27.7 kg/m^2). See FIGS. 3 and 2, respectively, for results of their OTT's.
Calculation of estimated caloric value (ECV) demands some explanation here, as the calculation requires acceptance of some reasonable assumptions: • GI values for lactose monohydrate, fructose, sucrose and oat starch are 46, 23, 64, and 100, respectively. • Caloric values for lactose monohydrate, fructose, sucrose and oat starch are 3.8, 3.7, 3.9, and 3.7 kcal/g, respectively. • The order for complete active absorption of sugar mixtures from the small intestine to the bloodstream is fructose>starch (as maltose and α-dextrins)>sucrose>lactose. • Passive absorption of unhydrolyzed disaccharides is assumed to be zero for these calculations. • Disaccharides not actively absorbed pass to the colon, where they are fully degraded by microflora. • 78% of the disaccharides form short chain fatty acids (SCFA's), which are fully absorbed and used by the body with 50%×0.85=42.5% energy efficiency vs glucose (Livesey, Int J Food Sci Nutr, 44, 221-241, 1993). • 22% of the disaccharides are converted to biomass, which is calorically unavailable to the host (Weber et al, J Lab Clin Med, 110, 259-263, 1987). • NB—Starch (not part of the sweetener) which passes to the colon and is degraded microbially subtracts energy value from the sweetener, a component of which (lactose) caused it to pass to the colon.
The type 2 diabetic subject (DM2) was a person (BMI=32.8 kg/m^2), who was trying to control their diabetes without insulin or oral medications. Their daily drug regimen included Premarin®, Prempro®, Xenical®, and Lipitor®, all taken after OTT was completed each day. […]

[3] = system: plasma glucose; settings: untreated diabetics, Gannon et al; cited from earlier work
[4] = system: plasma glucose; assay: OTT, aqueous sugar solutions (50 g in 200 g water), Subject #1; assay type: in vivo, human; settings: Subject #1, N=3
Method: The test subject (Subject #1) was a person in good health, with a body mass index (BMI) equal to 28.6 kg/m^2. The subject was required to exercise moderately at least 30 minutes each day before testing, sleep at least 7 hours the previous night, and fast for no less than 12 hours prior to oral tolerance testing (OTT) early the next morning. Water was restricted 1.5 hours prior to testing, and only small sips of water were allowed infrequently during OTT. The test article, described below, was ingested as quickly as possible after the time 0 blood sample was obtained. Subsequent blood samples were taken at 30, 60, 90, 120, 150, and 180 minutes, and plasma glucose measurements were recorded in units of mg/dL immediately each time using a hand-held glucometer (At•Last model, Amira Medical, Scotts Valley, Calif. 95066). The subject abstained from food and remained sedentary during the 3-hour test. Clinical observations were noted and recorded continuously.
as §1, with “See FIGS. 3 and 2, respectively, for results of their OTT's.” left out

[5] = system: blood glucose; settings: diabetic volunteers after normal insulin or oral agents, vs glucose (GI=100); cited from earlier work
[6] = system: plasma glucose; settings: glucose = 100, cited from earlier work
[7] = system: rats; settings: cited from earlier work
[8] = system: rats; settings: cited from earlier work; for body fat lowering vs controls: pair-fed rats
[9] = molecular target: human sucrase (Homo sapiens, UniProt P14410); settings: in vitro; cited from earlier work
[10] = system: maltase; settings: in vitro; cited from earlier work
[11] = molecular target: rabbit sucrase (Oryctolagus cuniculus, UniProt P07768); settings: in vitro; cited from earlier work
[12] = system: human small intestine; settings: cited from earlier work
[13] = system: rabbit maltase; settings: in vitro; cited from earlier work
[14] = pair-feeding, lactose 30% of diet (Février 1969)
[15] = weanling male rats, 12% lactose, six weeks (Ali and Evans 1971)

Sequence of human lactase (P09848 869-1927): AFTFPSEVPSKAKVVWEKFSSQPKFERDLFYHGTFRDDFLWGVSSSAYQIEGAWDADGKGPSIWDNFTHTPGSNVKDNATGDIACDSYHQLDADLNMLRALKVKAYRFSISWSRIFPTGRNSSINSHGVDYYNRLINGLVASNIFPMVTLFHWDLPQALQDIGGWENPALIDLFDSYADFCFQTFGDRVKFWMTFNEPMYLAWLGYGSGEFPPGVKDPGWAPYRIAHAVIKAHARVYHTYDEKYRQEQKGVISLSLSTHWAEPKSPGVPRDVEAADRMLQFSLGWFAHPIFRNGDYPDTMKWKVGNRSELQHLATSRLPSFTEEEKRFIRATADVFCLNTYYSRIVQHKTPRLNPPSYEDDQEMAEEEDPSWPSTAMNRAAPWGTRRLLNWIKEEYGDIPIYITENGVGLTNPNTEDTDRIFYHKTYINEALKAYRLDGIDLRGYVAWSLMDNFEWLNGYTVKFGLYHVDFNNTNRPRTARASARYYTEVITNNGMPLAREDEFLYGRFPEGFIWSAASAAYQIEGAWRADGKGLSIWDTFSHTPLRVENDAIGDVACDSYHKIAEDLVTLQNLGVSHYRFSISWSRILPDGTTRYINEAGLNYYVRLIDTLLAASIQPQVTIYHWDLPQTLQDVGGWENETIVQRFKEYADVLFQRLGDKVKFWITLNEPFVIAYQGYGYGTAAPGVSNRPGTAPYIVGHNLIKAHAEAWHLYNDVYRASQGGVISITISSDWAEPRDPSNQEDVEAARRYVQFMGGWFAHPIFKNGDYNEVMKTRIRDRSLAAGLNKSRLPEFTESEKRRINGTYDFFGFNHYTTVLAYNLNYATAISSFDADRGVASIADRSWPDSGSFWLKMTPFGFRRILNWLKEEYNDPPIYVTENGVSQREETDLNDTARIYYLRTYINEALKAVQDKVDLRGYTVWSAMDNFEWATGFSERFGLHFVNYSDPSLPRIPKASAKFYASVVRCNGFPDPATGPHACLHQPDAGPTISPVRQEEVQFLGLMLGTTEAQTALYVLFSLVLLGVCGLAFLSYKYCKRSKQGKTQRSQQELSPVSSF
Sequence of human sucrase (P14410 whole entry): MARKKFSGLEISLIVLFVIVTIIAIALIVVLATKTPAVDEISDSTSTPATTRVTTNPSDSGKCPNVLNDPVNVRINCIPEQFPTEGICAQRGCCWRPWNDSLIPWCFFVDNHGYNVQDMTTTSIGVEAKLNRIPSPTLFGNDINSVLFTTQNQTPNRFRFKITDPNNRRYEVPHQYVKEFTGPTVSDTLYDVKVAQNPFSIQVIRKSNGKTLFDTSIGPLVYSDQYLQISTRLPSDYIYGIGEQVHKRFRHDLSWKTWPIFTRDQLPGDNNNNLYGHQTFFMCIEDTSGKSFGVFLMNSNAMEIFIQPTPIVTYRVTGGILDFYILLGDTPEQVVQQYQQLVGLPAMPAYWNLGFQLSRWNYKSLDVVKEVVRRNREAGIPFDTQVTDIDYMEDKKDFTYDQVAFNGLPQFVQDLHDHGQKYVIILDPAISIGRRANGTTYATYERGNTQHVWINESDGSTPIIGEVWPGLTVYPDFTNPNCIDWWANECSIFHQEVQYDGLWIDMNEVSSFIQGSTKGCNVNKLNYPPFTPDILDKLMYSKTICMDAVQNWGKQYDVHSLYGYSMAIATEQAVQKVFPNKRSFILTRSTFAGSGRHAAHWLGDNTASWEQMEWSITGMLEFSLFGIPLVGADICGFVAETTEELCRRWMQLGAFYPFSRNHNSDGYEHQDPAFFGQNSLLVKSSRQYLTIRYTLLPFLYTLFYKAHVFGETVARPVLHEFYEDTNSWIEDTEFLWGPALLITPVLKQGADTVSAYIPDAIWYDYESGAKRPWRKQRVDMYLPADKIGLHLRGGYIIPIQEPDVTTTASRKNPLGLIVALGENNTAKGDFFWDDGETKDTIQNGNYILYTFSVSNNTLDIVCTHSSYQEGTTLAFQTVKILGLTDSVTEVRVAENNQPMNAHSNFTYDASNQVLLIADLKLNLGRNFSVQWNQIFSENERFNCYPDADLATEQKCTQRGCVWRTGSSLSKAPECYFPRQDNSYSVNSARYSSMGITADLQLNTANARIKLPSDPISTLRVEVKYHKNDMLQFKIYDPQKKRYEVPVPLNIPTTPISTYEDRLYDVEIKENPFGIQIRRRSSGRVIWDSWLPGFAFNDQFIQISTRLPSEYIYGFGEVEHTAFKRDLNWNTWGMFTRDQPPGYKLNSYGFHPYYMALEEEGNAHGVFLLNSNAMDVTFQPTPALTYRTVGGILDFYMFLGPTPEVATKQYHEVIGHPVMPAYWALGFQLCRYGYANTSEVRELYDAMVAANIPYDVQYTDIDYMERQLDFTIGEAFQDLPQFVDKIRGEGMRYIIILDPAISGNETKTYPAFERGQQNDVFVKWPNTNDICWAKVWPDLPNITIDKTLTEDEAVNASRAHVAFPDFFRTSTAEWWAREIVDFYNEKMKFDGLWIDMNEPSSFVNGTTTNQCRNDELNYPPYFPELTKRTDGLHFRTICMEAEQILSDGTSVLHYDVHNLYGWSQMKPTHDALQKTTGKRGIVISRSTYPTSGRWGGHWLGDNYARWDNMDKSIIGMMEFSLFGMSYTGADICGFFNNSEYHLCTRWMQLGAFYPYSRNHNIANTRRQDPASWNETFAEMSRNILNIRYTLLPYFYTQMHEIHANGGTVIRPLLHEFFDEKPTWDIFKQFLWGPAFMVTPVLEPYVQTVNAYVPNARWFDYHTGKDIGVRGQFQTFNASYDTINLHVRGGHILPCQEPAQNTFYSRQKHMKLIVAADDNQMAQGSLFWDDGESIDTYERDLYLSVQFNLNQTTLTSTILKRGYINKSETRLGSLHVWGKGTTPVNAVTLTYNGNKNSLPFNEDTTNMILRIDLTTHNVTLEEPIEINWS
Sequence of rabbit sucrase (P07768 whole entry): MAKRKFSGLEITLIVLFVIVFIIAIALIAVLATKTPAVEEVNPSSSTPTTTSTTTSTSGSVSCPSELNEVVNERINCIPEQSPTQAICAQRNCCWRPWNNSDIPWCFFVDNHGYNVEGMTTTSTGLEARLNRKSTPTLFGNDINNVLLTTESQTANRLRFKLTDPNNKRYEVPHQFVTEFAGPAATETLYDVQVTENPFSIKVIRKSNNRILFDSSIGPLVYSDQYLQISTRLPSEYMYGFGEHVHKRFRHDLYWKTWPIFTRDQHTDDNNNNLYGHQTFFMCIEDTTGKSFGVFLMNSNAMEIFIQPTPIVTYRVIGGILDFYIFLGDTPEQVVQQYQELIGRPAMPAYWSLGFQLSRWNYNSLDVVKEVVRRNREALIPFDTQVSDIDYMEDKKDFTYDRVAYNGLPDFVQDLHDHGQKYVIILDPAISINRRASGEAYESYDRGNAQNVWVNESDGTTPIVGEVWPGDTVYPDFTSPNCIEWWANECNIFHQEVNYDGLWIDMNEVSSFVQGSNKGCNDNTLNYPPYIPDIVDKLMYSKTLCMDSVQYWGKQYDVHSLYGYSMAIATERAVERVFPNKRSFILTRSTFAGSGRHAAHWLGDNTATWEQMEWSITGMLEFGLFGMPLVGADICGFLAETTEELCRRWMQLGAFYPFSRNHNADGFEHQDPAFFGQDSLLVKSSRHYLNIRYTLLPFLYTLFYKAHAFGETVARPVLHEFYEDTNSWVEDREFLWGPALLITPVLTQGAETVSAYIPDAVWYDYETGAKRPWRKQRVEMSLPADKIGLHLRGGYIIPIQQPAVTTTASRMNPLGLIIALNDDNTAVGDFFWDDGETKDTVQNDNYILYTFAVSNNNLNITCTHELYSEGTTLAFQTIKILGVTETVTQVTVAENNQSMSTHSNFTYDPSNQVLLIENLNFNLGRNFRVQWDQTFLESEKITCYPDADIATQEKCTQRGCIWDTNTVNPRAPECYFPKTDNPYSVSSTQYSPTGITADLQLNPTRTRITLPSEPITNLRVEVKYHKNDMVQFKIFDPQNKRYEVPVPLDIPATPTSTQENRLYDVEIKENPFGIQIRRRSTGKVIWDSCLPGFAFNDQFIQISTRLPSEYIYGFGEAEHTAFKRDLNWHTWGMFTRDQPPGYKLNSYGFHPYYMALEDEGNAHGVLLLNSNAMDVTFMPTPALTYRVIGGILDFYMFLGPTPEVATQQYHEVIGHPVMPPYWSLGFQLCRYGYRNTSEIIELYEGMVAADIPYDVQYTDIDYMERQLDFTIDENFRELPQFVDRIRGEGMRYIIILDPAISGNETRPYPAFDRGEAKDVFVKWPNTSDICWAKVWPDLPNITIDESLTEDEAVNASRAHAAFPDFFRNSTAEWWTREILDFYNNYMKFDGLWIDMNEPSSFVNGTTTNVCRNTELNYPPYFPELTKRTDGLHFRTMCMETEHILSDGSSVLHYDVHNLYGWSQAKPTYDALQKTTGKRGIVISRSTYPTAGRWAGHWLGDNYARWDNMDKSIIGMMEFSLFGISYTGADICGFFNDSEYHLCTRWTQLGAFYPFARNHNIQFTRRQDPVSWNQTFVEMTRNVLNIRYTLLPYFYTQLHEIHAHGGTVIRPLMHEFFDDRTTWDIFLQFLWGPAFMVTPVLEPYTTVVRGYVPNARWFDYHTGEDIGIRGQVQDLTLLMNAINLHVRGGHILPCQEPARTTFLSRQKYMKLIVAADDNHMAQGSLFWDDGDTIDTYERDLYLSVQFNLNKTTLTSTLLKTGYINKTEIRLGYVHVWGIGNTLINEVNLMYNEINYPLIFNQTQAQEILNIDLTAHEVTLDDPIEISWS

Question: With OC[C@H]1O[C@H](O[C@H]2[C@H](O)[C@@H](O)[C@H](O)O[C@@H]2CO)[C@H](O)[C@@H](O)[C@@H]1O [maltose] as the compound, how does the “inhibition of lactose hydrolysis by human lactase” value [1] read?
Answer: no inhibiting effect

Question: Which results are given for OC[C@H]1O[C@@](CO)(O[C@H]2O[C@H](CO)[C@@H](O)[C@H](O)[C@H]2O)[C@@H](O)[C@@H]1O [sucrose]?
Answer: plasma glucose level relative to 200 mg/dL [2]: broke above 200 mg/dL; time of plasma glucose peak [2]: 45 min; AUC ([2]; 25 g in 100 g water, N=2): 6184 mg·min/dL; GI values [3]: 43; AUC [4]: 2935 mg·min/dL; glycemic index (GI) [5]: 63; inhibition of lactose hydrolysis by human lactase [1]: no inhibiting effect; glycemic index (GI) [6]: 64; glycemic index (GI) ([6]; listed as SU): 64

Question: Which results are given for OC[C@H]1O[C@@H](O[C@H]2[C@H](O)[C@@H](O)C(O)O[C@@H]2CO)[C@H](O)[C@@H](O)[C@H]1O (some centres unmarked) [lactose]?
Answer: GI values [3]: 32; relative availability compared to glucose ([7]; bioassay based on plasma ketones): 0.59; relative availability compared to glucose ([7]; bioassay based on weight gain): 0.57; metabolizable energy value [7]: 2.1 kcal/g; reduction of fat content ([8]; ad libitum feeding, lactose 30% of diet (Février 1969)): 20%; reduction of growth rate ([8]; ad libitum feeding, lactose 30% of diet vs starch control (Février 1969)): 37%; reduction of fat content ([8]; equalized-growth-feeding, lactose 30% of diet (Février 1969)): 12%; body fat lowering vs controls ([8]; lactose 30% of diet (Whittier et al 1935)): 38%; body fat lowering vs controls ([8]; lactose 50% of diet (Baker et al 1967)): 48%; body fat lowering vs controls ([8]; lactose 52% of diet (Tomarelli et al 1960)): 40%; reduction of fat content [8, 14]: 32%; reduction of growth rate [8, 14]: 23%; body fat reduction [8, 15]: 30%; body moisture increase [8, 15]: 11%; glycemic index (GI) [5]: 48; glycemic index (GI) [6]: 46

Question: What does the source list for O=C(CO)[C@@H](O)[C@H](O)[C@H](O)CO [fructose]?
Answer: inhibition of sucrose hydrolysis by human sucrase [9]: inhibit; GI values [3]: 6; glycemic index (GI) [5]: 24; inhibition of maltose hydrolysis by maltase [10]: no inhibiting effect; inhibition of lactose hydrolysis by human lactase [1]: competitively inhibit; glycemic index (GI) [6]: 23

Question: Which “inhibition of sucrose hydrolysis by human sucrase” value [9] does the source give for O=C[C@H](O)[C@@H](O)[C@@H](O)[C@H](O)CO [galactose] here?
Answer: no inhibition

Question: And the “inhibition of rabbit sucrase” value [11]?
Answer: no inhibition

Question: What about the “absorption rate relative to fructose” value [12] of the same compound?
Answer: ~1.2 times as fast as fructose

Question: What about the “inhibition of maltose hydrolysis by maltase” value [10] of the same compound?
Answer: no inhibiting effect

Question: What about the “inhibition of lactose hydrolysis by human lactase” value [1] of the same compound?
Answer: competitively inhibit

Question: What about the “inhibition of rabbit maltase” value [13] of the same compound?
Answer: no inhibition
